Assay results: article PMC11651181, “Discovery of 6α-Thiazolylcarboxamidonaltrexamine Derivative (NTZ) as a Potent and Central Nervous System Penetrant Opioid Receptor Modulator with Drug-like Properties for Potential Treatment of Opioid Use Disorder” (ACS Pharmacology & Translational Science, 2024)
Structures can show the parent of a compound that is named as a salt.

What was measured:
[1] = biological target: T1, μ opioid receptor (MOR) (Mus musculus, UniProt P42866); test: Competitive radioligand binding assay, MOR
T1 construct: expressed in transfected cells; host or cells: CHO (mMOR-CHO), membrane preparation
Experimental: (§1) The competition binding assay was performed using monoclonal mouse opioid receptors expressed in CHO cell lines (monoclonal human δ opioid receptor was used for the DOR assay).
(§2) The bound radioligand was separated using a Brandel harvester. Specific binding to the MOR, KOR, and DOR was calculated by subtracting the binding observed in the presence of 5 μM naltrexone, U50488, and SNC80, respectively, from the binding in their absence. Relative affinity values (IC50) were determined by fitting displacement binding inhibition data to a nonlinear regression model using GraphPad Prism 8.0 (GraphPad Software, San Diego, CA). The % inhibition was calculated using the formula: % inhibition = 100% - [(binding with the tested compound - nonspecific binding)/specific binding] × 100%. The IC50 values were converted to Ki values using the Cheng-Prusoff equation: Ki = IC50/ [1 + ([L*]/KD)], where [L*] is the concentration of the radioligand and KD is the KD of the radioligand.[68]

[2] = biological target: T2, δ opioid receptor (DOR) (Homo sapiens, UniProt P41143); test: Competitive radioligand binding assay, DOR; conditions: for Selectivity δ/μ: ratio of Ki values
T2 construct: expressed in transfected cells; host or cells: CHO (hDOR-CHO), membrane preparation
Experimental: as §1, §2

[3] = biological target: T3, κ opioid receptor (KOR) (Mus musculus, UniProt P33534); test: Competitive radioligand binding assay, KOR; conditions: for Selectivity κ/μ: ratio of Ki values
T3 construct: expressed in transfected cells; host or cells: CHO (mKOR-CHO), membrane preparation
Experimental: as §1, §2

[4] = biological target: T4, MOR (Mus musculus, UniProt P42866); test: MOR [35S]GTPγS functional assay; format: biochemical; conditions: for Emax: read-out: MOR [35S]GTPγS Binding %Emax of DAMGO, relative to 3 μM DAMGO, mean ± SEM
T4 construct: expressed in transfected cells; host or cells: CHO (MOR-CHO), membrane preparation
Experimental: The [^35S]GTPγS functional assay was used to assess the efficacy of compounds at the MOR, KOR, and DOR. In this assay, 10 μg of MOR-CHO/KOR-CHO/DOR-CHO membrane protein was incubated in 500 μL of TME with 100 mM NaCl, 20 μM GDP, 0.1 nM [^35S]GTPγS, and varying concentrations of the compound for 1.5 h in a 30 °C water bath. Protein concentration was adjusted using the Bradford protein assay. […] After incubation, bound radioactivity was separated by filtration through GF/B glass fiber filters and measured by liquid scintillation counting. All assays were performed in duplicate and repeated at least three times. Net stimulated [35S]GTPγS binding was calculated as agonist-stimulated minus basal binding.

SMILES | Ki [1] [nM] | Ki [2] [nM] | Selectivity δ/μ [2] | Ki [3] [nM] | Selectivity κ/μ [3] | EC50 [4] [nM] | Emax [4] [%]
O=C(Cc1ccns1)N[C@H]1CC[C@@]2(O)[C@H]3Cc4ccc(O)c5c4[C@@]2(CCN3CC2CC2)[C@H]1O5 [Compound 2, 17-Cyclopropylmethyl-3,14β-dihydroxy-4,5α-epoxy-6α-(5′-isothiazolylacetamido)-morphinan hydrochloride] | 0.55 ± 0.06 | 13.9 ± 1.62 | 25 | 1.49 ± 0.13 | 3 | 4.62 ± 0.44 | 18.2 ± 1.06
O=C(N[C@H]1CC[C@@]2(O)[C@H]3Cc4ccc(O)c5c4[C@@]2(CCN3CC2CC2)[C@H]1O5)c1cncs1 [Compound 3, 17-Cyclopropylmethyl-3,14β-dihydroxy-4,5α-epoxy-6α-(5′-thiazolylcarboxamido)-morphinan hydrochloride] | 0.35 ± 0.02 | 16.8 ± 3.88 | 48 | 0.97 ± 0.11 | 3 | 2.77 ± 0.51 | 15.9 ± 1.84
O=C(Cc1cncs1)N[C@H]1CC[C@@]2(O)[C@H]3Cc4ccc(O)c5c4[C@@]2(CCN3CC2CC2)[C@H]1O5 [Compound 4, 17-Cyclopropylmethyl-3,14β-dihydroxy-4,5α-epoxy-6α-(5′-thiazolylacetamido)-morphinan hydrochloride] | 0.57 ± 0.02 | 8.5 ± 0.56 | 15 | 2.08 ± 0.39 | 4 | 5.87 ± 1.26 | 17 ± 0.89
O=C(CCc1cncs1)N[C@H]1CC[C@@]2(O)[C@H]3Cc4ccc(O)c5c4[C@@]2(CCN3CC2CC2)[C@H]1O5 [Compound 5, 17-Cyclopropylmethyl-3,14β-dihydroxy-4,5α-epoxy-6α-[(3′-(thiazolyl-5′′-yl)propan-amido]morphinan hydrochloride] | 0.71 ± 0.08 | 11.6 ± 1.24 | 16 | 2.04 ± 0.38 | 3 | 2.76 ± 0.58 | 10.7 ± 1.02
O=C(Cc1cncs1)N[C@@H]1CC[C@@]2(O)[C@H]3Cc4ccc(O)c5c4[C@@]2(CCN3CC2CC2)[C@H]1O5 [Compound 12, 17-Cyclopropylmethyl-3,14β-dihydroxy-4,5α-epoxy-6β-(5′-thiazolylacetamido)-morphinan hydrochloride] | 0.39 ± 0.04 | 17.5 ± 1.91 | 44 | 0.89 ± 0.05 | 2 | 1.24 ± 0.25 | 13 ± 0.76
O=C(CCc1cncs1)N[C@@H]1CC[C@@]2(O)[C@H]3Cc4ccc(O)c5c4[C@@]2(CCN3CC2CC2)[C@H]1O5 [Compound 13, 17-Cyclopropylmethyl-3,14β-dihydroxy-4,5α-epoxy-6β-[(3′-(thiazolyl-5′′-yl)propan-amido]morphinan hydrochloride] | 0.49 ± 0.07 | 31.5 ± 2.78 | 65 | 1.2 ± 0.25 | 2 | 1.39 ± 0.36 | 10.5 ± 0.92
O=C(Cc1nccs1)N[C@@H]1CC[C@@]2(O)[C@H]3Cc4ccc(O)c5c4[C@@]2(CCN3CC2CC2)[C@H]1O5 [Compound 15, 17-Cyclopropylmethyl-3,14β-dihydroxy-4,5α-epoxy-6β-(2′-thiazolylacetamido)-morphinan hydrochloride] | 0.35 ± 0.04 | 26.4 ± 2.65 | 76 | 1.89 ± 0.77 | 5 | 0.78 ± 0.18 | 11 ± 0.43
O=C(CCc1nccs1)N[C@@H]1CC[C@@]2(O)[C@H]3Cc4ccc(O)c5c4[C@@]2(CCN3CC2CC2)[C@H]1O5 [Compound 16, 17-Cyclopropylmethyl-3,14β-dihydroxy-4,5α-epoxy-6β-[(3′-(thiazolyl-2′′-yl)propan-amido]morphinan hydrochloride] | 0.35 ± 0.03 | 18.8 ± 3.26 | 54 | 0.67 ± 0.08 | 2 | 1.75 ± 0.46 | 12.1 ± 0.67
